Experimental data: PubChem BioAssay AID270 (DTP/NCI, 2004)
Values joined by “and” are separate entries in the source; they are usually repeats but may differ in a detail not shown here. Identical values can stand only once. Results filed as inconclusive are left out.

Tested on: BDF1 mice, s.c. Lewis lung carcinoma, T/C %
Assay: NCI In Vivo Anticancer Drug Screen. Data for tumor model Lewis Lung Carcinoma (subcutaneous) in B6D2F1 (BDF1) mice
Experimental: The antitumor activity of compounds was measured in mice bearing transplantable tumors. Survival or tumor size were measured and the results are expressed as the measurement made in the treated group (T) divided by the measurement made in the vehicle treated control group (C). The tumor model used in this assay is Lewis Lung Carcinoma (subcutaneous) in B6D2F1 (BDF1) mice

## OC(C1CO1)C(O)C1CO1 (stereo not drawn)
endpoint: mean tumor weight (est.), dose: 1.0 mg/kg/injection, schedule: Q01DX009 (ip), vehicle: saline, higher = larger tumour
  T/C: 73 % of control
endpoint: mean tumor weight (est.), dose: 1.0 mg/kg/injection, schedule: Q04DX003 (ip), vehicle: saline, higher = larger tumour
  T/C: 65 % of control
endpoint: mean tumor weight (est.), dose: 2.0 mg/kg/injection, schedule: Q01DX009 (ip), vehicle: saline, higher = larger tumour
  T/C: 46 % of control
endpoint: mean tumor weight (est.), dose: 2.0 mg/kg/injection, schedule: Q04DX003 (ip), vehicle: saline, higher = larger tumour
  T/C: 45 % of control
endpoint: mean tumor weight (est.), dose: 4.0 mg/kg/injection, schedule: Q04DX003 (ip), vehicle: saline, higher = larger tumour
  T/C: 63 % of control
endpoint: median survival time, dose: 1.0 mg/kg/injection, schedule: Q01DX009 (ip), vehicle: saline, higher = longer survival
  T/C: 95 % of control
endpoint: median survival time, dose: 1.0 mg/kg/injection, schedule: Q04DX003 (ip), vehicle: saline, higher = longer survival
  T/C: 104 % of control
endpoint: median survival time, dose: 2.0 mg/kg/injection, schedule: Q01DX009 (ip), vehicle: saline, higher = longer survival
  T/C: 117 % of control
endpoint: median survival time, dose: 2.0 mg/kg/injection, schedule: Q04DX003 (ip), vehicle: saline, higher = longer survival
  T/C: 104 % of control
endpoint: median survival time, dose: 4.0 mg/kg/injection, schedule: Q04DX003 (ip), vehicle: saline, higher = longer survival
  T/C: 123 % of control

## Cc1cc(N(CCCl)CCCl)ccc1N=Nc1ccccc1C(=O)O
endpoint: median survival time, dose: 2.0 mg/kg/injection, schedule: Q01DX009 (ip), vehicle: saline with Tween-80, higher = longer survival
  T/C: 101 % of control
endpoint: median survival time, dose: 4.0 mg/kg/injection, schedule: Q01DX009 (ip), vehicle: saline with Tween-80, higher = longer survival
  T/C: 105 % of control and 111 % of control
endpoint: median survival time, dose: 8.0 mg/kg/injection, schedule: Q01DX009 (ip), vehicle: saline with Tween-80, higher = longer survival
  T/C: 96 % of control and 104 % of control
endpoint: median survival time, dose: 10.0 mg/kg/injection, schedule: Q01DX001 (ip), vehicle: saline with Tween-80, higher = longer survival
  T/C: 107 % of control
endpoint: median survival time, dose: 20.0 mg/kg/injection, schedule: Q01DX001 (ip), vehicle: saline with Tween-80, higher = longer survival
  T/C: 92 % of control
endpoint: median survival time, dose: 32.0 mg/kg/injection, schedule: Q04DX003 (ip), vehicle: saline with Tween-80, higher = longer survival
  T/C: 116 % of control

## COc1cc(C(=O)OC2CC34CCNC35CC(OC5(OC)C2O)c2cc3c(cc24)OCO3)ccc1O (stereo not drawn)
endpoint: mean tumor weight, dose: 0.25 mg/kg/injection, schedule: Q01DX011 (ip), vehicle: carboxymethylcellulose (CMC), higher = larger tumour
  T/C: 41 % of control
endpoint: mean tumor weight, dose: 0.5 mg/kg/injection, schedule: Q01DX011 (ip), vehicle: carboxymethylcellulose (CMC), higher = larger tumour
  T/C: 50 % of control
endpoint: mean tumor weight, dose: 1.0 mg/kg/injection, schedule: Q01DX011 (ip), vehicle: carboxymethylcellulose (CMC), higher = larger tumour
  T/C: 87 % of control

## O=NN(CCCl)C(=O)Nc1ccc2c(c1)OCO2
endpoint: median survival time, dose: 3.13 mg/kg/injection, schedule: Q01DX009 (ip), vehicle: saline with Tween-80, higher = longer survival
  T/C: 98 % of control
endpoint: median survival time, dose: 6.25 mg/kg/injection, schedule: Q01DX009 (ip), vehicle: saline with Tween-80, higher = longer survival
  T/C: 116 % of control
endpoint: median survival time, dose: 12.5 mg/kg/injection, schedule: Q01DX009 (ip), vehicle: saline with Tween-80, higher = longer survival
  T/C: 102 % of control

## FCCNC1CCCCC1
endpoint: mean tumor weight, dose: 1.5 mg/kg/injection, schedule: Q01DX011 (ip), vehicle: carboxymethylcellulose (CMC), higher = larger tumour
  T/C: 99 % of control
endpoint: mean tumor weight, dose: 5.0 mg/kg/injection, schedule: Q01DX011 (ip), vehicle: carboxymethylcellulose (CMC), higher = larger tumour
  T/C: 89 % of control
endpoint: mean tumor weight, dose: 7.5 mg/kg/injection, schedule: Q01DX011 (ip), vehicle: carboxymethylcellulose (CMC), higher = larger tumour
  T/C: 68 % of control

## CN(CCCOS(C)(=O)=O)CCCOS(C)(=O)=O
endpoint: mean tumor weight, dose: 5.0 mg/kg/injection, schedule: Q01DX011 (ip), vehicle: saline, higher = larger tumour
  T/C: 85 % of control
endpoint: mean tumor weight, dose: 10.0 mg/kg/injection, schedule: Q01DX011 (ip), vehicle: saline, higher = larger tumour
  T/C: 78 % of control
endpoint: mean tumor weight, dose: 20.0 mg/kg/injection, schedule: Q01DX011 (ip), vehicle: saline, higher = larger tumour
  T/C: 49 % of control
endpoint: mean tumor weight, dose: 40.0 mg/kg/injection, schedule: Q01DX011 (ip), vehicle: saline, higher = larger tumour
  T/C: 59 % of control

## CCN(CC)CCN1C(=O)c2cccc3cccc(c23)C1=O
endpoint: mean tumor weight, dose: 48.0 mg/kg/injection, schedule: Q01DX011 (ip), vehicle: saline, higher = larger tumour
  T/C: 111 % of control
endpoint: mean tumor weight, dose: 73.0 mg/kg/injection, schedule: Q01DX011 (ip), vehicle: saline, higher = larger tumour
  T/C: 87 % of control
endpoint: mean tumor weight, dose: 110.0 mg/kg/injection, schedule: Q01DX011 (ip), vehicle: saline, higher = larger tumour
  T/C: 69 % of control

## c1cn[nH]c1
endpoint: mean tumor weight, dose: 20.0 mg/kg/injection, schedule: Q01DX011 (ip), vehicle: water, higher = larger tumour
  T/C: 54 % of control
endpoint: mean tumor weight, dose: 40.0 mg/kg/injection, schedule: Q01DX011 (ip), vehicle: water, higher = larger tumour
  T/C: 45 % of control
endpoint: mean tumor weight, dose: 80.0 mg/kg/injection, schedule: Q01DX011 (ip), vehicle: water, higher = larger tumour
  T/C: 32 % of control

## NCCCOc1ccc([N+](=O)[O-])cc1Cl
endpoint: median survival time, dose: 12.5 mg/kg/injection, schedule: Q01DX009 (ip), vehicle: saline, higher = longer survival
  T/C: 87 % of control
endpoint: median survival time, dose: 50.0 mg/kg/injection, schedule: Q01DX009 (ip), vehicle: saline, higher = longer survival
  T/C: 100 % of control and 120 % of control and 121 % of control
endpoint: median survival time, dose: 100.0 mg/kg/injection, schedule: Q01DX009 (ip), vehicle: saline, higher = longer survival
  T/C: 87 % of control and 101 % of control and 112 % of control
